Test results as given in patent US5173490A, “Benzisoxazole and benzisothiazole compounds” (Adir et Compagnie, priority 1991, dated 1992).

tested on: stereotypies (bruxism) induced by methyl phenidate; assay: Test of the stereotypies induced by methyl phenidate in rats (inhibition of bruxism); assay type: in vivo, male Wistar rats; details: Rattus norvegicus, ip, 0.5 h, read-out: ED50 (mean effective dose permitting inhibition of bruxism by 50%)
Protocol: 24 male Wistar rats which weighed between 220 and 240 g and which had eaten nothing for approximately 24 hours were used for this test. Each animal receives a first treatment (reference compound, compound of the invention, or solvent) at a given time before a second treatment (methyl phenidate or physiological serum), which is effected by the i.p. route at the time designated T0. Among the animals used for a test, […] serve as control and receive the following treatments: serum+serum i.p.: 1 animal (serum control); solvent+ 40 mg/kg i.p. methyl phenidate: 2 animals (40 mg/kg i.p. methyl phenidate control); and solvent+0.16, 0.63, 2.5 or 10 mg/kg i.p. of methyl phenidate: 1 animal (0.16, 0.63, 2.5 or 10 mg/kg i.p. methyl phenidate controls).
The test products were administered at given times before the injection of 40 mg/kg i.p. of methyl phenidate at T0. Each animal is observed for a period of 10 seconds. Observations of behaviour were carried out 30 minutes after the treatment with methyl phenidate. A total of 10 observation periods is carried out for each rat at time T30 min. During these observations, the presence (1) or absence (0) of stereotypy is noted.

| Structure (SMILES) | ED50 |
| --- | --- |
| CN(C)CCCN1c2ccccc2Sc2ccc(Cl)cc21 [chlorpromazine, reference compound] | 1.4 mg/kg |

same assay, conditions: Rattus norvegicus, ip, 0.5 h; rats; i.p.; given before 40 mg/kg i.p. methyl phenidate; observed 30 min after methyl phenidate; read-out: ED50 (mean effective dose permitting inhibition of bruxism by 50%)

| Structure (SMILES) | ED50 |
| --- | --- |
| Fc1ccc2c(N3CCN(CC4CCc5ccccc54)CC3)noc2c1 (racemic) [Example 18, (R,S)-3-{1-[(indan-1-yl)methyl]piperazin-4-yl}-6-fluoro-1,2-benzisoxazole] | 10 mg/kg |
| COc1cc2c(cc1OC)C(CN1CCN(c3noc4ccccc34)CC1)C2 (racemic) [Example 19, (R,S)-3-{1-[(4,5-dimethoxybenzocyclobutan-1-yl)-methyl]piperazin-4-yl}-1,2-benzisoxazole] | 1.25 mg/kg |
| COc1cc2c(cc1OC)C(CN1CCN(c3noc4cc(F)ccc34)CC1)C2 (racemic) [Example 17, (R,S)-3-{1-[(4,5-dimethoxybenzocyclobutan-1-yl)methyl]-piperazin-4-yl}-6-fluoro-1,2-benzisoxazole] | 2.5 mg/kg |
| Fc1ccc2c(N3CCN(CC4Cc5ccccc54)CC3)noc2c1 (racemic) [Example 1, (R,S)-3-{1-[(benzocyclobutan-1-yl)methyl]piperazin-4-yl}-6-fluoro-1,2-benzisoxazole] | 0.31 mg/kg |
| c1ccc2c(c1)CC2CN1CCN(c2noc3ccccc23)CC1 (racemic) [Example 6, (R,S)-3-{1-[(benzocyclobutan-1-yl)methyl]piperazin-4-yl}-1,2-benzisoxazole] | 1.25 mg/kg |
| c1ccc2c(c1)CC2CN1CCN(c2nsc3ccccc23)CC1 (racemic) [Example 4, (R,S)-3-{1-[(benzocyclobutan-1-yl)methyl]piperazin-4-yl}-1,2-benzisothiazole] | 10 mg/kg |
